Measured values taken from patent publication US20040214848A1, “Inhibitors of ABC drug transporters in microbial cells” (priority 2001, published 2004).
Where two headings read alike, the source gives them in different places.

Key:
human PGP [1] = molecular target: T1, human PGP (Homo sapiens, UniProt P08183); experiment: Inhibition of PGP-mediated [3H]-digoxin transport in human PGP-expressing LLC-PK1 (15B-J) cell monolayers; conditions: for Concentrations at which inhibitory behavior was exhibited: pH 7.2
T1 sequence (P08183 whole entry): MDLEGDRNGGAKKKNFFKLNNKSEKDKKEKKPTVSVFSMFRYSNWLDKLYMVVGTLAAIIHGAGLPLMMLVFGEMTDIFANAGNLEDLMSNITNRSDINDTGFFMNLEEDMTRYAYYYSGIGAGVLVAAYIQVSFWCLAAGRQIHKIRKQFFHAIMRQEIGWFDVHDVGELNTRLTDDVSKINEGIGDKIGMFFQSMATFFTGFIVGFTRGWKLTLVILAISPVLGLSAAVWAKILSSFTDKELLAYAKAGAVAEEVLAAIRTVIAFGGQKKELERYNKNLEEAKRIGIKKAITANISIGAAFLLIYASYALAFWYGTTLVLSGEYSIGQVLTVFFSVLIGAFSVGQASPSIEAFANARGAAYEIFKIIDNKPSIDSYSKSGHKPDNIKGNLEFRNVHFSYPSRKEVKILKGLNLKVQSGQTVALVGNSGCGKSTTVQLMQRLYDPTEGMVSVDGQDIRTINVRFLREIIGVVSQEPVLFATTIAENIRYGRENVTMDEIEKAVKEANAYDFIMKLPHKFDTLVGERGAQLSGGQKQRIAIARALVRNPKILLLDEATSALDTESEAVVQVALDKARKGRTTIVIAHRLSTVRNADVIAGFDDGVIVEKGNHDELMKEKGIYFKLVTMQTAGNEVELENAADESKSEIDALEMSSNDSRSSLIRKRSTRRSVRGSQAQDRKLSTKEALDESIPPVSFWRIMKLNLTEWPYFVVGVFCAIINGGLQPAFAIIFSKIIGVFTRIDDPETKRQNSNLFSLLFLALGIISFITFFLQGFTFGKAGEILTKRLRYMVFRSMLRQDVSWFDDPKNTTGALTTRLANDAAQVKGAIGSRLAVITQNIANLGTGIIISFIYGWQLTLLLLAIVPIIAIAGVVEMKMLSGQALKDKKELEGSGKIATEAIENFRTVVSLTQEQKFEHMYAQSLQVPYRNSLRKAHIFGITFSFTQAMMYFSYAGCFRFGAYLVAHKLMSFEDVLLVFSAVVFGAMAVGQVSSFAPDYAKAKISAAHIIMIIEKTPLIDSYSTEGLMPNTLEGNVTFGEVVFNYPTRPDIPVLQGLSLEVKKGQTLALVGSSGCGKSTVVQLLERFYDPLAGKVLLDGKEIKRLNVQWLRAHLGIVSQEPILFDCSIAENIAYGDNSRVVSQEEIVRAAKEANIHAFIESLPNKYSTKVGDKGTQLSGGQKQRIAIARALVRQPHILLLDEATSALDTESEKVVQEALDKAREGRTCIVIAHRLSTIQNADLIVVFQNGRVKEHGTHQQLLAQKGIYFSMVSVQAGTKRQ

human PGP [2] = molecular target: T1, human PGP
[3] = molecular target: human PGP membranes (PGP-ATPase) (Homo sapiens, UniProt P08183)
Chain of human PGP membranes (PGP-ATPase) (P08183 whole entry): as above
Protocol: The DMSO concentration (1.0%) was constant for all conditions within the experiment.
The test substances were incubated in the PGP membranes and supplemented with MgATP, with and without sodium orthovanadate present. Orthovanadate inhibits PGP by trapping MgADP in the nucleotide binding site. Thus, the ATPase activity measured in the presence of orthovanadate represents non-PGP ATPase activity and was subtracted from the activity generated without orthovanadate to yield vanadate-sensitive ATPase activity.
(§1) ATPase assays were conducted in 96-well microtiter plates. A 0.06 mL reaction mixture containing 40 μg PGP membranes, test substance, and 4 mM MgATP, in buffer containing 50 mM Tris-MES, 2 mM EGTA, 50 mM KCl, 2 mM dithiothreitol, and 5 mM sodium azide, plus organic solvent was incubated at 37° C. for 20 minutes. […] Identical reaction mixtures containing 100 μM sodium orthovanadate were assayed in parallel. The reactions were stopped by the addition of 30 μl of 10% SDS+Antifoam A. The incubations were followed with addition of 200 μl of 35 mM Ammonium Molybdate in 15 mM Zinc Acetate:10% Ascorbic Acid (1:4) and incubated for an additional 20 minutes at 37° C. Additionally, 0.06 mL aliquots of potassium phosphate standards prepared in the buffer described above, were incubated in the plates containing the test and control substances, with SDS and detection reagent added. The liberation of inorganic phosphate was detected by its absorbance at 800 nm and quantitated by comparing the absorbance to a phosphate standard curve. The concentration dependence of the PGP was analyzed for evidence of saturation of PGP-ATPase activity, and apparent kinetic parameters were calculated by non-linear regression.
as §1, with “plates.” for “plates. A 0.06 mL reaction mixture containing 40 μg PGP membranes, test substance, and 4 mM MgATP, in buffer containing 50 mM Tris-MES, 2 mM EGTA, 50 mM KCl, 2 mM dithiothreitol, and 5 mM sodium azide, plus organic solvent was incubated at 37° C. for 20 minutes.”, “PGP-associated ATPase” for “PGP-ATPase”
as §1, with “The effect of tobramycin on PGP-associated ATPase activity was also assayed. The tobramycin was incubated in human PGP membranes (BD Biosciences, Franklin Lakes, N.J., Gentest Cat. K228) and supplemented with MGATP, with and without sodium orthovanadate present. ATPase” for “ATPase”, “tobramycin,” for “test substance,”, “solvent (1% DMSO)” for “solvent”, “curve.” for “curve. The concentration dependence of the PGP was analyzed for evidence of saturation of PGP-ATPase activity, and apparent kinetic parameters were calculated by non-linear regression.”

[4] = system: CLA (control) Monolayer, LLC-PK1 cells; conditions: pig, 120 min, 10 µM, pH 7.2
[5] = system: Plasmodium falciparum strains; conditions: more rapidly; cited from earlier work

Oc1ccc2c3c1O[C@H]1[C@H](O)CC[C@@]4(O)[C@@H](C2)N(CC2CC2)CC[C@]314 [6-β-Naltrexol, 6-β-naltrexol]
Inhibition of digoxin efflux, mean (human PGP [1]; concentration range of 0.0001 to 30 μM): 8.5 +/−7.1% | Inhibition of PGP-mediated digoxin transport (result in words) (human PGP [1]; ketoconazole at 25 μM, test substance over the concentration range tested): inhibitor of PGP-mediated digoxin transport | Concentration dependence of inhibition of digoxin transport (result in words) (human PGP [2]): did not appear to be concentration-dependent

CC[C@H]1OC(=O)[C@H](C)[C@@H](O[C@H]2C[C@@](C)(OC)[C@@H](O)[C@H](C)O2)[C@H](C)[C@@H](O[C@@H]2O[C@H](C)C[C@H](N(C)C)[C@H]2O)[C@](C)(O)C[C@@H](C)C(=O)[C@H](C)[C@@H](O)[C@]1(C)O [Erythromycin, erythromycin]
Effect on PGP-associated ATPase activity (result in words) [3]: stimulate PGP-associated ATPase activity | ATPase Activity ([3]; human, 20 min, 0.1 μM): 1.1 nmol/mg/min | ATPase Activity ([3]; human, 20 min, 0.2 µM): 2.0 nmol/mg/min | ATPase Activity ([3]; human, 20 min, 0.4 µM): 0.8 nmol/mg/min | ATPase Activity ([3]; human, 20 min, 0.8 µM): 0.1 nmol/mg/min | ATPase Activity ([3]; human, 20 min, 3.13 µM): 0.5 nmol/mg/min | ATPase Activity ([3]; human, 20 min, 6.25 µM): 0.6 nmol/mg/min | ATPase Activity ([3]; human, 20 min, 12.5 µM): 2.8 nmol/mg/min | ATPase Activity ([3]; human, 20 min, 25 µM): 8.2 nmol/mg/min | ATPase Activity ([3]; human, 20 min, 50 µM): 14.0 nmol/mg/min | ATPase Activity ([3]; human, 20 min, 100 μM): 15.6 nmol/mg/min | pmoles in Receiver [4]: 6.3 pmol

C=C1CC[C@@]2(O)[C@H]3Cc4ccc(O)c5c4[C@@]2(CCN3CC2CC2)[C@H]1O5 [Nalmefene, nalmefene]
Effect on PGP-associated ATPase activity (result in words) ([3]; semi-quantitative assay): not to limit the ATPase activity | Concentration dependence of inhibition of digoxin transport (result in words) (human PGP [1]): increasingly inhibited in response to increasing concentration | Efflux ratio B→A/A→B, Hi Affinity/Low Cap (human PGP [1]; human, LLC-PK1, pH 7.2): 4.2 (3.0) | Efflux ratio B→A/A→B, Low Affinity/Hi Cap (human PGP [1]; human, LLC-PK1, pH 7.2): 2.6 (1.9) | Concentrations at which inhibitory behavior was exhibited (human PGP [1]; human): 100 to 100000 nM

C=CCN1CC[C@]23c4c5ccc(O)c4O[C@H]2C(=O)CC[C@@]3(O)[C@H]1C5 [Naloxone, naloxone]
Effect on PGP-associated ATPase activity (result in words) ([3]; semi-quantitative assay): not to limit the ATPase activity | Concentration dependence of inhibition of digoxin transport (result in words) (human PGP [1]): not concentration-dependent | Concentrations at which inhibitory behavior was exhibited (human PGP [1]; human): 100 to 100000 nM

O=C1CC[C@@]2(O)[C@H]3Cc4ccc(O)c5c4[C@@]2(CCN3CC2CC2)[C@H]1O5 [Naltrexone, naltrexone]
ATPase Activity ([3]; 0.003 μM test substance): -0.3 nmol/mg/min | ATPase Activity ([3]; 0.01 μM test substance): 0.0 nmol/mg/min | ATPase Activity ([3]; 0.03 μM test substance): -1.6 nmol/mg/min | ATPase Activity ([3]; 0.1 μM test substance): -0.7 nmol/mg/min | ATPase Activity ([3]; 0.3 μM test substance): -1.4 nmol/mg/min | ATPase Activity ([3]; 1.0 μM test substance): -0.8 nmol/mg/min | ATPase Activity ([3]; 3.0 μM test substance): 2.1 nmol/mg/min | ATPase Activity ([3]; 10 μM test substance): 2.0 nmol/mg/min | ATPase Activity ([3]; 30 μM test substance): -2.0 nmol/mg/min | ATPase Activity ([3]; 100 μM test substance): 4.6 nmol/mg/min

NC[C@H]1O[C@H](O[C@H]2[C@H](O)[C@@H](O[C@H]3O[C@H](CO)[C@@H](O)[C@H](N)[C@H]3O)[C@H](N)C[C@@H]2N)[C@H](N)C[C@@H]1O [Tobramycin, tobramycin]
Effect on PGP-associated ATPase activity (result in words) [3]: stimulate PGP-associated ATPase activity | ATPase Activity ([3]; human, 20 min, 0.1 μM): -1.6 nmol/mg/min | ATPase Activity ([3]; human, 20 min, 0.2 µM): -2.6 nmol/mg/min | ATPase Activity ([3]; human, 20 min, 0.4 µM): -2.6 nmol/mg/min | ATPase Activity ([3]; human, 20 min, 0.8 µM): -3.3 nmol/mg/min | ATPase Activity ([3]; human, 20 min, 3.13 µM): -2.6 nmol/mg/min | ATPase Activity ([3]; human, 20 min, 6.25 µM): -1.4 nmol/mg/min | ATPase Activity ([3]; human, 20 min, 12.5 µM): -1.0 nmol/mg/min | ATPase Activity ([3]; human, 20 min, 25 µM): 0.2 nmol/mg/min | ATPase Activity ([3]; human, 20 min, 50 µM): 0.3 nmol/mg/min | ATPase Activity ([3]; human, 20 min, 100 μM): 1.5 nmol/mg/min

CCN(CC)CCCC(C)Nc1ccnc2cc(Cl)ccc12 (stereo not drawn) [chloroquine]
Efflux of the drug, chloroquine-resistant versus chloroquine-sensitive strains [5]: 40-50 times
